Measured values: patent publication US6969729B2, “Use of isatin derivatives as ion channel activating agents” (Neurosearch A/S, priority 1998, dated 2005)

Row | Structure (SMILES) | melting point
1 | O=C1Nc2ccc(Br)cc2C1=NO [Compound 1a, 5-Bromoisatin 3-oxime] | 250 to 251 °C
2 | CN1C(=O)C(=NO)c2cc(Cl)c(Cl)cc21 [Compound 1b, 5,6-dichloro-1-methylisatin 3-oxime] | 232 to 236 °C
3 | CN1C(=O)C(=NO)c2c1ccc(Cl)c2Cl [Compound 1d, 4,5-dichloro-1-methylisatin 3-oxime] | 140 to 142 °C
4 | CN1C(=O)C(=NO)c2ccc(Cl)c(Cl)c21 [Compound 1j, 6,7-Dichloro-1-methylisatin 3-oxime] | > 200 °C

Now from value to compound:

Row | melting point | Structure (SMILES)
5 | 263 to 264 °C | O=C1Nc2c(ccc(F)c2F)C1=NO [Compound 1o, 6,7-Difluoroisatin 3-oxime]
6 | 283 to 284 °C | Cc1ccc2c(c1C)NC(=O)C2=NO [Compound 1p, 6,7-Dimethylisatin 3-oxime]
7 | 274 to 275 °C | O=C1Nc2cc(Cl)c(Cl)cc2C1=NO [Compound 1q, 5,6-Dichloroisatin 3-oxime]
8 | > 300 °C | Cc1c(Cl)ccc2c1NC(=O)C2=NO [Compound 1u, 6-Chloro-7-methylisatin 3-oxime]
9 | 286 °C (dec.) | Cc1c(F)ccc2c1NC(=O)C2=NO [Compound 1v, 6-Fluoro-7-methylisatin 3-oxime]
10 | 268 to 270 °C | COc1c(F)ccc2c1NC(=O)C2=NO [Compound 1w, 6-Fluoro-7-methoxyisatin 3-oxime]
